Measurements reported in the supplement of paper PMC10307832.

Columns and labels:
Test in all cases: relative viability (nuclei count vs DMSO), 5 days (fraction); higher = more cells survive
NCI-H2087 = tested on: NCI-H2087
Procedure, shortened: (§1)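 Values are medians from duplicate plates. Each reflects relative viability, defined as the nuclei count of treated wells over that of vehicle wells. Lung cancer cell lines in 1536-well plates were pin-tool dosed one day after seeding with one drug alone or with a fixed anchor-drug dose plus five library-drug doses (not always all listed) in √10 steps, then fixed, stained and imaged at 4× after 5 days.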

LXF-289 = tested on: LXF-289
Procedure, shortened: as §1

NCI-H2085 = tested on: NCI-H2085
Procedure, shortened: as §1

NCI-H1651 = tested on: NCI-H1651
Procedure, shortened: as §1

LU99A = tested on: LU99A
Procedure, shortened: as §1

NCI-H1755 = tested on: NCI-H1755
Procedure, shortened: as §1

NCI-H1993 = tested on: NCI-H1993
Procedure, shortened: as §1

NCI-H1355 = tested on: NCI-H1355
Procedure, shortened: as §1

BEN = tested on: BEN
Procedure, shortened: as §1

PC-14 = tested on: PC-14
Procedure, shortened: as §1

NCI-H1437 = tested on: NCI-H1437
Procedure, shortened: as §1

NCI-H460 = tested on: NCI-H460
Procedure, shortened: as §1

NCI-H1666 = tested on: NCI-H1666
Procedure, shortened: as §1

HCC-44 = tested on: HCC-44
Procedure, shortened: as §1

CAL-12T = tested on: CAL-12T
Procedure, shortened: as §1

NCI-H2170 = tested on: NCI-H2170
Procedure, shortened: as §1

NCI-H1792 = tested on: NCI-H1792
Procedure, shortened: as §1

Q: Which results are given for `CN1CCN(CCOc2cc(OC3CCOCC3)c3c(Nc4c(Cl)ccc5c4OCO5)ncnc3c2)CC1` [Saracatinib] + NC(=O)Nc1cc(-c2cccc(F)c2)sc1C(=O)N[C@H]1CCCNC1 [AZD7762] (partner 0.2 µM)?
A: relative viability (NCI-H2087; first compound 0.02 µM): 1.33; relative viability (NCI-H2087; first compound 0.2 µM): 1.13; relative viability (NCI-H2087; first compound 0.6325 µM): 1.76; relative viability (NCI-H2087; first compound 2 µM): 1.31; relative viability (LXF-289; first compound 0.02 µM): 1.12; relative viability (LXF-289; first compound 0.2 µM): 1.09; relative viability (LXF-289; first compound 0.6325 µM): 1.12; relative viability (LXF-289; first compound 2 µM): 1.1; relative viability (NCI-H2085; first compound 0.02 µM): 1.06; relative viability (NCI-H2085; first compound 0.2 µM): 0.864; relative viability (NCI-H2085; first compound 0.6325 µM): 0.903; relative viability (NCI-H2085; first compound 2 µM): 0.871; relative viability (NCI-H1651; first compound 0.02 µM): 0.549; relative viability (NCI-H1651; first compound 0.2 µM): 0.359; relative viability (NCI-H1651; first compound 0.6325 µM): 0.514; relative viability (NCI-H1651; first compound 2 µM): 0.436; relative viability (LU99A; first compound 0.02 µM): 0.374; relative viability (LU99A; first compound 0.2 µM): 0.279; relative viability (LU99A; first compound 0.6325 µM): 0.31; relative viability (LU99A; first compound 2 µM): 0.325; relative viability (NCI-H1755; first compound 0.02 µM): 0.438; relative viability (NCI-H1755; first compound 0.2 µM): 0.41; relative viability (NCI-H1755; first compound 0.6325 µM): 0.465; relative viability (NCI-H1755; first compound 2 µM): 0.372; relative viability (NCI-H1993; first compound 0.02 µM): 0.836; relative viability (NCI-H1993; first compound 0.2 µM): 0.719; relative viability (NCI-H1993; first compound 0.6325 µM): 0.694; relative viability (NCI-H1993; first compound 2 µM): 0.581; relative viability (NCI-H1355; first compound 0.02 µM): 0.769; relative viability (NCI-H1355; first compound 0.2 µM): 0.564; relative viability (NCI-H1355; first compound 0.6325 µM): 0.719; relative viability (NCI-H1355; first compound 2 µM): 0.715; relative viability (BEN; first compound 0.02 µM): 0.906; relative viability (BEN; first compound 0.2 µM): 0.511; relative viability (BEN; first compound 0.6325 µM): 0.847; relative viability (BEN; first compound 2 µM): 0.713; relative viability (PC-14; first compound 0.02 µM): 0.381; relative viability (PC-14; first compound 0.2 µM): 0.286; relative viability (PC-14; first compound 0.6325 µM): 0.246; relative viability (PC-14; first compound 2 µM): 0.203; relative viability (NCI-H1437; first compound 0.02 µM): 1.12; relative viability (NCI-H1437; first compound 0.2 µM): 1.17; relative viability (NCI-H1437; first compound 0.6325 µM): 1.17; relative viability (NCI-H1437; first compound 2 µM): 1.07; relative viability (NCI-H460; first compound 0.02 µM): 0.732; relative viability (NCI-H460; first compound 0.2 µM): 0.482; relative viability (NCI-H460; first compound 0.6325 µM): 0.628; relative viability (NCI-H460; first compound 2 µM): 0.596; relative viability (NCI-H1666; first compound 0.02 µM): 0.956; relative viability (NCI-H1666; first compound 0.2 µM): 0.821; relative viability (NCI-H1666; first compound 0.6325 µM): 1.07; relative viability (NCI-H1666; first compound 2 µM): 0.847; relative viability (HCC-44; first compound 0.02 µM): 1.07; relative viability (HCC-44; first compound 0.2 µM): 0.941; relative viability (HCC-44; first compound 0.6325 µM): 1.03; relative viability (HCC-44; first compound 2 µM): 1.01; relative viability (CAL-12T; first compound 0.02 µM): 0.612; relative viability (CAL-12T; first compound 0.2 µM): 0.6; relative viability (CAL-12T; first compound 0.6325 µM): 0.662; relative viability (CAL-12T; first compound 2 µM): 0.699; relative viability (NCI-H2170; first compound 0.02 µM): 0.867; relative viability (NCI-H2170; first compound 0.2 µM): 0.803; relative viability (NCI-H2170; first compound 0.6325 µM): 0.872; relative viability (NCI-H2170; first compound 2 µM): 0.506; relative viability (NCI-H1792; first compound 0.02 µM): 0.618; relative viability (NCI-H1792; first compound 0.2 µM): 0.542; relative viability (NCI-H1792; first compound 0.6325 µM): 0.831; relative viability (NCI-H1792; first compound 2 µM): 0.648
